Data published in patent US20060258670A1, “New phenylpyridylpiperazine compounds” (priority 2005, published 2006).

How the values were obtained:
[1] = target: T1, type H3 central histamine receptors (Mus musculus, UniProt P58406); test: Cerebral levels of N^t-methylhistamine in the NMRI mouse (ex vivo, RIA); settings: one hour after treatment, versus carrier
T1 construct: from tissue; host or cells: brain of living NMRI mice
Protocol: The purpose of this study, which was carried out in accordance with the method of Taylor et al. (Biochem. Pharm., 1992, 44, 1261-1267), is to evaluate the ex vivo activity of the compounds of the present invention as antagonists of type H3 central histamine receptors. […] An increase in the cerebral concentrations of N^t-methylhistamine indicates an increase in the turn-over of histamine by blockage of the type H3 central histamine receptors.
NMRI mice (18-20 g) are treated intraperitoneally or orally with compounds of the present invention or with their carrier (20 ml/kg). One hour after the pharmacological treatment, the animals are sacrificed, and their brains are removed, frozen in liquid nitrogen, weighed and homogenised in 0.1N HClO4 at 4° C. The homogenised products are centrifuged (15 000 g, 17 min, 4° C.). The supernatants are recovered and divided into aliquots. The aliquots are frozen in, liquid nitrogen and stored at −80° C. until analysis.
Determination of the cerebral levels of N^t-methylhistamine is carried out by radioimmunological assay (RIA) using an assay kit. The tissue levels of N^t-methylhistamine are expressed in […] of fresh brain. The comparison of the cerebral levels of N^t-methylhistamine between animals treated with the carrier (controls) and animals treated with compounds of the present invention is carried out by single-factor variance analysis followed, if necessary, by a complementary analysis (Dunnett's test).

Adult male Wistar rats = test: Electroencephalographic recordings on freely moving rats; assay type: in vivo; settings: Wistar rat, EEG
Protocol: Adult male Wistar rats were chronically implanted with electrodes placed over the frontal and panetal cortex. Cortical electroencephalogram (EEG) was recorded from rats placed inside cages in a sound attenuating-room. Compounds and vehicle were administered in a random order at 10:00 AM on the same days with a minimum of 3 days between each administration, allowing each rat to serve as its own control. Absolute power of slow wave delta band activity (1-4 Hz), that predominates during slow wave sleep and disappears during wakefulness and rapid eyes movement sleep, was averaged over successive periods of 30 min. Over 30 min, low and high values of slow wave delta power are signs of arousal and sleep, respectively.

T1 sequence (P58406 whole entry): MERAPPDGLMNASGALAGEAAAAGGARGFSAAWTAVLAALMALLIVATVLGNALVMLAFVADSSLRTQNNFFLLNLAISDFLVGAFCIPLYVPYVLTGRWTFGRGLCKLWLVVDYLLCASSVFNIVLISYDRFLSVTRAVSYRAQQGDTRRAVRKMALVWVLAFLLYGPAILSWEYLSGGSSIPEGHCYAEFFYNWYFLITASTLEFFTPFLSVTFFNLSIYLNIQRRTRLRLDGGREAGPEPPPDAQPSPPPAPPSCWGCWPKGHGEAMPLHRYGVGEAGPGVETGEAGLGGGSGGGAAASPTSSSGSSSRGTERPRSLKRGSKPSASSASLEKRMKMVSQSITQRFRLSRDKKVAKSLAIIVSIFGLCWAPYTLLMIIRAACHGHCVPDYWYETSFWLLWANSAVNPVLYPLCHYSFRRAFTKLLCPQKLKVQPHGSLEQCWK

SMILES | increase of endogenous cerebral concentrations of N^t-methylhistamine ([1]; 10 mg/kg PO) | duration of significant reduction of slow wave delta power (cortical activation and arousal) (Adult male Wistar rats; 0.3 mg/kg) | sleep latency: first slow wave sleep episode after administration (Adult male Wistar rats; 3 mg/kg, control group 45±5 minutes) | increase of endogenous cerebral concentrations of N^t-methylhistamine ([1]; 3 mg/kg PO)
CC(C)N1CCN(c2ccc(-c3ccc(S(=O)(=O)N4CCOCC4)cc3)cn2)CC1.Cl.Cl [Example 1] | 105% | 150 min | 73 ± 5 min | –
CCN1CCN(c2ccc(-c3ccc(S(=O)(=O)N4CCCCC4)cc3)cn2)CC1.Cl.Cl [Example 5] | 197% | – | – | –
CC(C)N1CCN(c2ccc(-c3ccc(S(=O)(=O)N4CCN(C)CC4)cc3)cn2)CC1.Cl.Cl.Cl [Example 9, 1-Isopropyl-4-(5-{4-[(4-methylpiperazin-1-yl)sulphonyl]phenyl}pyridin-2-yl)piperazine trihydrochloride] | 121% | – | – | –
CC(C)CN1CCN(c2ccc(-c3ccc(S(=O)(=O)N4CCOCC4)cc3)cn2)CC1.Cl.Cl [Example 21, 4-({4-[6-(4-Isobutylpiperazin-1-yl)pyridin-3-yl]phenyl}sulphonyl)-morpholine dihydrochloride] | – | – | – | 168%
